Experimental data reported in patent US20180177872A1, “Combination of PD-1 antagonist with an EGFR inhibitor” (priority 2015, published 2018).
Each block holds one molecule with its values, some of them ahead of it.

Experiments:
[1] = target: human PD-1 protein (Homo sapiens, UniProt Q15116); assay: Biacore binding on human PD-1 protein; settings: Biacore method
Procedure: The binding of an exemplary humanized anti-PD-1 antibodies including Clone B and Clone E as shown in Table 1 on human PD-1 protein was measured using Biacore method.

[2] = Iso-electric focussing (Novex IEF) analysis; assay type: physicochemical; settings: estimated from staining positions against the IEF 3-10 marker
Procedure: Non-reduced samples of Protein A purified antibody were electrophoresed as described below.
5 μg of Protein A purified samples were electrophoresed on a 1.0 mm Novex pH 3-10 gradient gel (Invitrogen, EC66552BOX) using manufacturers recommended running conditions. A 10 μl aliquot of IEF pH 3-10 markers (Invitrogen, 39212-01) was included on the gel. Once electrophoresed, gels were fixed with 10% TCA solution for 30 min and then stained with InstantBlue (TripleRed, ISB01L) over night at room temperature. Images of the stained gels were analysed on a BioSpectrum Imaging System (UVP).

[3] = Pharmacokinetic (PK) modeling of flat dosing schedules
[4] = target: T1, TXK (Homo sapiens, UniProt P42681); assay: TXK biochemical assay (Caliper LabChip)
T1 sequence (P42681 1-527): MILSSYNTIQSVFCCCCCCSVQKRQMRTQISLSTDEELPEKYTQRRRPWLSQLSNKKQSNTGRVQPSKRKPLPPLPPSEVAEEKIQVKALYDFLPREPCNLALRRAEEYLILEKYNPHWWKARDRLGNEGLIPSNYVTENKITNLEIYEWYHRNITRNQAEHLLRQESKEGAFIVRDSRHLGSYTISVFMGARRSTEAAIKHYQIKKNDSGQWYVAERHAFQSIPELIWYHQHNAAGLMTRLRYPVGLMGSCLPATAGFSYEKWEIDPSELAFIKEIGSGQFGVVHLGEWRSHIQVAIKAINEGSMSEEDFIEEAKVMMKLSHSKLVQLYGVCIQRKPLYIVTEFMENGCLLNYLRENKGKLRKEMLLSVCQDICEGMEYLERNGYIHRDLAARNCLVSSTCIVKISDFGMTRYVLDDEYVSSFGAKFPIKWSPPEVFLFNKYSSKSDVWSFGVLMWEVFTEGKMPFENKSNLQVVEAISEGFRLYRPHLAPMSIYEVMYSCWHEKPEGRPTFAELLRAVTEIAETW

[5] = target: T2, TEC (Homo sapiens, UniProt P42680); assay: TEC biochemical assay (Caliper LabChip)
T2 sequence (P42680 1-631): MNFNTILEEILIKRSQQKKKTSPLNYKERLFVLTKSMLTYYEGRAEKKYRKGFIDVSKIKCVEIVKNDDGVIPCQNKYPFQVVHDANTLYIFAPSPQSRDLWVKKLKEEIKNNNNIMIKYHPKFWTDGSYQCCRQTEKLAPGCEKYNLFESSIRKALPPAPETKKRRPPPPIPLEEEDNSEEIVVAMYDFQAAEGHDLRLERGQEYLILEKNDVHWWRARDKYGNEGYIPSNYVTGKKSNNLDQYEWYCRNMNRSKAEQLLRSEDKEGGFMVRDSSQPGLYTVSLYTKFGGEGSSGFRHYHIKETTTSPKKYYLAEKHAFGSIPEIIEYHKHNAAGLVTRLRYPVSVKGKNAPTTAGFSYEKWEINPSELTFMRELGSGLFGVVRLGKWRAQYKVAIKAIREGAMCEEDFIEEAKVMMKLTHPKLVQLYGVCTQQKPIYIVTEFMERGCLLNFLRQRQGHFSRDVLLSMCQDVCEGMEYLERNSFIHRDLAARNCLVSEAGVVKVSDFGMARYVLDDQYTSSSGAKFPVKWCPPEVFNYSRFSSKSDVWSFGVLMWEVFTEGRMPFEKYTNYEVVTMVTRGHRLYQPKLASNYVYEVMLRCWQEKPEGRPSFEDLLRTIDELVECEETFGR

[6] = tested on: T-cell dependent antibody response; assay: T-cell dependent antibody response (TDAR) assay with KLH; settings: for anti-KLH IgG mean percent difference compared to vehicle controls / anti-KLH IgM mean percent difference compared to vehicle controls: 30 mg/kg/day
[7] = tested on: mouse CD4+ T cells; assay: Mouse CD4 T cell proliferation assay; assay type: cell-based; settings: Cellular
[8] = tested on: TMD-8 cells (BTK); assay: BTK-dependent TMD-8 cell proliferation assay; assay type: cell-based; settings: Homo sapiens, TMD8, Cellular
Procedure: After 3 days, cell viability was measured using Cell Titer Glo.

[9] = tested on: primary human CD4+ T cells; assay: Human CD4 T cell proliferation assay; assay type: cell-based; settings: Cellular
Procedure: In the Human CD4 T cell assay, primary human CD4+ T cells isolated from a leukopak were cultured in the presence of anti-CD3/anti-CD28 beads to stimulate T cell proliferation. After 4 days, cell viability was measured using Cell Titer Glo.

[10] = tested on: mouse B cells; assay: Mouse B cell proliferation assay; assay type: cell-based; settings: Cellular
Procedure: In the Mouse B cell assay, B cells are purified from mouse splenocytes and plated in the tissue culture plates with supplement of anti-IgM and m-IL4. […] After 3 days, cell viability was measured using Cell Titer Glo.

[11] = tested on: TEC-family kinases (ITK, TEC, and TXK); assay: Cellular IL-2 production assay in Jurkat cells; assay type: cell-based; settings: Homo sapiens, CD3/CD28 stimulation, read-out: IC50, IL2-Production
Procedure: The cellular IL-2 Production assay was carried out using Jurkat cells. Upon CD3/CD28 stimulation overnight in the presence of various concentrations of compound, the IL-2 content in the conditioned media was measured by ELISA, and compound IC50 was determined.

[12] = target: cynomolgus PD-1 protein (cynomolgus, UniProt B0LAJ3 25-170); assay: Biacore, cynomolgus PD-1
Chain of cynomolgus PD-1 protein (B0LAJ3 entry or part of it limits assumed): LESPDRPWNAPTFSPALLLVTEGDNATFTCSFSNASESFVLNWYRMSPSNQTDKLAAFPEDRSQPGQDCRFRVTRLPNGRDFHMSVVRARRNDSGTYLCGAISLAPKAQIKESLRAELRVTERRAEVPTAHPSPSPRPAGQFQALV

[13] = target: T3, human PD-1 expressed on 300.19 cells (human, UniProt Q15116 25-288); assay: blocking of PD-L1 binding on human PD-1-expressing 300.19 cells; competitor PD-L1
T3 construct: whole, on cells; also called human PD-1-expressing 300.19 cells
T3 sequence (Q15116 25-288): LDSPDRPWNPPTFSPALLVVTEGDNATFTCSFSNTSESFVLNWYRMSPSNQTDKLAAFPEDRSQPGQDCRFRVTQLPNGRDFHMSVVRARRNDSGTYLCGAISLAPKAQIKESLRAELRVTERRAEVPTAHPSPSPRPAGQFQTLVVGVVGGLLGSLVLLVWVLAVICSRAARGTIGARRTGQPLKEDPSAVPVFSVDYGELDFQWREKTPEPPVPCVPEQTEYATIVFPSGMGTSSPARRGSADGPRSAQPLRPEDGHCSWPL

[14] = target: T4, human PD-1 protein (human, UniProt Q15116 25-167, limits assumed); assay: Biacore, human PD-1 protein
T4 construct: Soluble protein in the Biacore assay
T4 sequence (Q15116 25-167 limits assumed): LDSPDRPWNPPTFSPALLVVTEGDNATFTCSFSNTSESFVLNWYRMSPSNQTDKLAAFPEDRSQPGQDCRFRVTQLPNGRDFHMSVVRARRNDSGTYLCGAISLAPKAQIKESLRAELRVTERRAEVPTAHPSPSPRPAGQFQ

Chain of human PD-1 protein (Homo sapiens, UniProt Q15116) (Q15116 25-288): as the sequence (Q15116 25-288) above

Molecule: BAP049-Clone E: humanized anti-programmed death-1 (PD-1) IgG4 monoclonal antibody; sequences in Table 1
Ka [1]: 278000 M⁻¹ s⁻¹ | Kd ([1]; rate constant): 0.000213 s⁻¹ | Basic charge isoforms (pI) [2]: 7.55 | pI of predominant charge isoform [2]: 7.5 | Half-Life ([3]; 46 patients in PK dataset): 20 [17, 23] days | IIV of CL ([3]; 46 patients in PK dataset): 62% | IIV of Half-Life ([3]; 46 patients in PK dataset): 64% | IIV of Volume of distribution at SS ([3]; 46 patients in PK dataset): 22% | Volume of distribution at SS ([3]; 46 patients in PK dataset): 7.2 [6.5, 7.9] L | patients with Cmin above EC50 ([3]; flat dose): Over 99.5% | patients with Cmin above EC90 ([3]; flat dose): over 93% | CL ([3]; flat dosing schedules, 46 patients in PK dataset): 10.9 [8.9, 13.2] mL/h

Molecule: Cc1cc(C(=O)Nc2nc3cccc(Cl)c3n2[C@@H]2CCCCN(C(=O)/C=C/CN(C)C)C2)ccn1 [Compound A, (R,E)-N-(7-chloro-1-(1-(4-(dimethylamino)but-2-enoyl)azepan-3-yl)-1Hbenzo[d]imidazol-2-yl)-2-methylisonicotinamide]
IC50 [4]: 2 nM | IC50, TXK ([4]; Biochemical): single digit nM | IC50 [5]: 0.9 nM | IC50, TEC ([5]; Biochemical): single digit nM | anti-KLH IgG mean percent difference compared to vehicle controls ([6]; female rats, study day 19): −96% | anti-KLH IgM mean percent difference compared to vehicle controls ([6]; female rats, study day 19): −88% | anti-KLH IgG mean percent difference compared to vehicle controls ([6]; female rats, study day 21): −98% | anti-KLH IgM mean percent difference compared to vehicle controls ([6]; female rats, study day 21): −75% | anti-KLH IgG mean percent difference compared to vehicle controls ([6]; female rats, study day 23): −97% | anti-KLH IgM mean percent difference compared to vehicle controls ([6]; female rats, study day 23): −71% | anti-KLH IgG mean percent difference compared to vehicle controls ([6]; female rats, study day 25): −96% | anti-KLH IgM mean percent difference compared to vehicle controls ([6]; female rats, study day 25): −63% | anti-KLH IgG mean percent difference compared to vehicle controls ([6]; female rats, study day 36): −69% | anti-KLH IgM mean percent difference compared to vehicle controls ([6]; female rats, study day 36): −67% | decrease of anti-KLH antibody production after withdrawal of treatment ([6]; male and female rats, recovery day 42 and 53): reversible | anti-KLH IgG mean percent difference compared to vehicle controls ([6]; male rats, study day 19): −78% | anti-KLH IgM mean percent difference compared to vehicle controls ([6]; male rats, study day 19): −67% | anti-KLH IgG mean percent difference compared to vehicle controls ([6]; male rats, study day 21): −84% | anti-KLH IgG mean percent difference compared to vehicle controls ([6]; male rats, study day 23): −80% | anti-KLH IgG mean percent difference compared to vehicle controls ([6]; male rats, study day 25): −83% | IC50 [7]: 107 nM | IC50 [8]: 224 nM | IC50 [9]: 140 nM | IC50 [10]: 295 nM | IC50 [11]: 21 nM

Kd [12]: 0.093 nM | IC50 [13]: 0.94 nM | Kd [14]: 0.0827 nM
B1: BAP049-Clone-E (antibody, human IgG4 S228P, kappa, V domains shown)
VH: EVQLVQSGAEVKKPGESLRISCKGSGYTFTTYWMHWVRQATGQGLEWMGNIYPGTGGSNFDEKFKNRVTITADKSTSTAYMELSSLRSEDTAVYYCTRWTTGTGAYWGQGTTVTVSS
VL: EIVLTQSPATLSLSPGERATLSCKSSQSLLDSGNQKNFLTWYQQKPGQAPRLLIYWASTRESGVPSRFSGSGSGTDFTFTISSLEAEDAATYYCQNDYSYPYTFGQGTKVEIKR
notes: Humanized IgG4(S228P)/kappa; also called Antibody B; exemplary humanized anti-PD-1 antibody
